Data as given in US9834558B2, “Substituted bridged urea analogs as sirtuin modulators” (GLAXOSMITHKLINE LLC, priority 2013, dated 2017).
Structures can show the parent of a compound that is named as a salt. Where two headings read alike, the source gives them in different places. Values belong to the compound of their own block, whether it stands above or below them.

Assays:
[1] = molecular target: T1, full-length hSIRT1 wild-type (Homo sapiens, UniProt Q96EB6); assay: SIRT1 activation and inhibition assays (OAcADPr mass spectrometry assay), wild-type enzyme; type: biochemical
T1 construct: Full-length human SIRT1 (hSIRT1) proteins were expressed with a C-terminal His6 tag; His6 (C); made in house
T1 sequence (Q96EB6 1-747): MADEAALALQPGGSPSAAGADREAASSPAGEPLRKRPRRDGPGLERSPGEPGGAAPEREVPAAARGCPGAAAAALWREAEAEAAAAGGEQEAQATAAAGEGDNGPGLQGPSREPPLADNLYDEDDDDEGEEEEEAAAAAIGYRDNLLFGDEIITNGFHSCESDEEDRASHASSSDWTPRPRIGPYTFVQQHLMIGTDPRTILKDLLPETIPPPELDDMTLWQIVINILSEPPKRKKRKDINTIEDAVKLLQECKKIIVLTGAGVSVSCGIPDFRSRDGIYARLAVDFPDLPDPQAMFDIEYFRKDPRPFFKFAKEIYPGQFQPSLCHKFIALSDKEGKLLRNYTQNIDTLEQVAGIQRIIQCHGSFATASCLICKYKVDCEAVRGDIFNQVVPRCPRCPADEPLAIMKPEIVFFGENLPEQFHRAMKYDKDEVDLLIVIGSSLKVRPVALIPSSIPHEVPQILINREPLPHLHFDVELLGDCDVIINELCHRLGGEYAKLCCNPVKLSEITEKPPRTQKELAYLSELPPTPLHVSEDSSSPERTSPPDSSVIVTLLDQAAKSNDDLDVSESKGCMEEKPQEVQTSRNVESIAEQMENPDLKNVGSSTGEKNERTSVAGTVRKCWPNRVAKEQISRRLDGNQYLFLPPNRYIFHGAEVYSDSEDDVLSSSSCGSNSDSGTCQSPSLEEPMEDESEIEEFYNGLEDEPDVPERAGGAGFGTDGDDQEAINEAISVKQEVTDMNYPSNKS

[2] = molecular target: T2, SIRT1 (Homo sapiens, UniProt Q96EB6); assay: Trp mass spectrometry assay of SIRT1 activation; type: biochemical; details: for TRP Activity (EC1.5): EC1.5 = concentration that results in 150% activation of SIRT1
T2 sequence (Q96EB6 1-747): T1 sequence (Q96EB6 1-747)
Summary of the method: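 N-terminal His-tagged human SIRT1 (10 nM, E. coli BL21(DE3)) with 0.5 μM Ac-RHKK(Ac)W-NH2 peptide and 120 μM βNAD+, 25 min at 25 °C in HEPES pH 7.5, formic acid stop. OAADPR or deacetylated peptide quantified by mass spectrometry; EC1.5 (50% activity increase over control) and Percent Maximum Activation reported.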

[3] = Trp mass spectrometry assay, EC1.5 = concentration of test compound that results in 150% activation of SIRT1
[4] = Trp peptide assay, maximum activity relative to control (100%), read-out: TRP MAX RESP (percent maximum fold activation)
[5] = concentration giving 150% activation of SIRT1, Trp peptide substrate
[6] = Trp mass spectrometry assay, concentration of test compound giving 150% activation of SIRT1

SMILES: Cc1cnc2c(NC(=O)N3c4nc(-c5cccc(C(F)(F)F)c5)ccc4N4CC[C@H]3C4)cccc2n1 [Example 8]
RVmax fold shift [1]: 1.00

SMILES: O=C(Nc1ccccn1)N1c2nc(-c3cccc(C(F)(F)F)c3)ccc2N2CC[C@H]1C2 [Example 7]
RVmax fold shift [1]: 1.00

SMILES: NCc1ccc(NC(=O)N2c3nc(-c4cccc(C(F)(F)F)c4)ccc3N3CCC[C@H]2C3)cc1 [444 (4), (9S)—N-(4-(aminomethyl)phenyl)-2-(3-(trifluoromethyl)phenyl)-8,9-dihydro-6H-5,9-methanopyrido[2,3-b][1,4]diazocine-10(7H)-carboxamide hydrochloride]
Tryp AVG EC1.5 (μM) [2, 3]: A (A (EC1.5<1 μM))

SMILES: Cc1ccc(-c2ccc3c(n2)N(C(=O)NCC2CC2)[C@H]2CCN3C2)cn1 [(9S)-N-(cyclopropylmethyl)-5-(6-methylpyridin-3-yl)-1,6,8-triazatricyclo[7.2.1.0^{2,7}]dodeca-2,4,6-triene-8-carboxamide]
TRP Activity (EC1.5) ([2]; Trp peptide assay): B (B (EC1.5 1-25 μM))
Emax [2, 4]: > 150%

SMILES: O=C(Nc1cccnn1)N1c2nc(-c3cccc(C(F)(F)F)c3)ccc2N2C[C@@H](O)[C@H]1C2 [Example 631]
Tryp AVG EC1.5 (μM) [2, 5]: B (B (EC1.5 1-25 μM))

SMILES: CCCCC(=O)c1cccc(NC(=O)N2c3nc(-c4cccc(C(F)(F)F)c4)ccc3N3CC[C@H]2C3)c1 [Example 737]
Tryp AVG EC1.5 (μM) [2, 5]: A (A (EC1.5<1 μM))

SMILES: COc1nccnc1NC(=O)N1c2nc(-c3ccnc(C)c3)ccc2N2CC[C@H]1C2 [Example 501]
Tryp AVG EC1.5 (μM) [2, 3]: B (B (EC1.5 1-25 μM))

SMILES: O=C(Nc1cccnc1)N1c2nc(-c3cncc(Cl)c3)ccc2N2CC[C@H]1C2 [Example 526]
Tryp AVG EC1.5 (μM) [2, 3]: A (A (EC1.5<1 μM))

SMILES: O=C(Nc1cnccn1)N1c2nc(N3CCNCC3)ccc2N2CC[C@H]1C2 [(9S)-5-(piperazin-1-yl)-N-(pyrazin-2-yl)-1,6,8-triazatricyclo[7.2.1.0 {2,7}]dodeca-2,4,6-triene-8-carboxamide]
TRP Activity (EC1.5) ([2]; Trp peptide assay): C (C (EC1.5>25 μM))
Emax [2, 4]: < 150%

SMILES: Cc1cc(-c2ccc3c(n2)N(C(=O)Nc2cnn(C)c2)[C@H]2CCN3C2)ccn1 [Example 482]
Tryp AVG EC1.5 (μM) [2, 3]: B (B (EC1.5 1-25 μM))

SMILES: O=C(Nc1cnccn1)N1c2nc(-c3cncc(C(F)(F)F)c3)ccc2N2CCC[C@H]1C2 [Example 452]
Tryp AVG EC1.5 (μM) [2, 3]: A (A (EC1.5<1 μM))

SMILES: O=C(Nc1ccncn1)N1c2nc(-c3cccc(Cl)c3)ccc2N2C[C@@H](O)[C@H]1C2 [Example 684]
Tryp AVG EC1.5 (μM) [2, 5]: B (B (EC1.5 1-25 μM))

SMILES: COC(=O)CNC(=O)c1ccc2c(n1)N(C(=O)Nc1ccccn1)[C@H]1CCN2C1 [methyl 2-{[(9S)-8-[(pyridin-2-yl)carbamoyl]-1,6,8-triazatricyclo[7.2.1.0^{2,7}]dodeca-2(7),3,5-trien-5-yl]formamido}acetate]
TRP Activity (EC1.5) ([2]; Trp peptide assay): B (B (EC1.5 1-25 μM))
Emax [2, 4]: > 150%

SMILES: Cc1ccc(-c2ccc3c(n2)N(C(=O)NC2CC(F)(F)C2)[C@H]2CCN3C2)cn1 [(9S)-N-(3,3-difluorocyclobutyl)-5-(6-methylpyridin-3-yl)-1,6,8-triazatricyclo[7.2.1.0 {2,7}]dodeca-2(7),3,5-triene-8-carboxamide]
TRP Activity (EC1.5) ([2]; Trp peptide assay): B (B (EC1.5 1-25 μM))
Emax [2, 4]: > 150%

SMILES: Cn1cc(-c2ccc3c(n2)N(C(=O)Nc2cnccn2)[C@H]2CCN3C2)ccc1=O [(9S)-5-(1-methyl-6-oxo-1,6-dihydropyridin-3-yl)-N-(pyrazin-2-yl)-1,6,8-triazatricyclo[7.2.1.0^2,7]dodeca-2(7),3,5-triene-8-carboxamide]
TRP Activity (EC1.5) ([2]; Trp peptide assay): C (C (EC1.5>25 μM))
Emax [2, 4]: < 150%

SMILES: O=C(Nc1ccncc1)N1c2nc(N3CCCC(C(F)(F)F)C3)ccc2N2CCC[C@H]1C2 (stereo partly drawn) [Example 360]
Tryp AVG EC1.5 (μM) [2, 6]: A (A (EC1.5<1 μM))

SMILES: O=C(Nc1ccccn1)N1c2nc(N3CCC[C@@H]3C(F)(F)F)ccc2N2CCC[C@H]1C2 [(9S)-N-(pyridin-2-yl)-5-[(2R)-2-(trifluoromethyl)pyrrolidin-1-yl]-1,6,8-triazatricyclo[7.3.1.0 {2,7}]trideca-2(7),3,5-triene-8-carboxamide]
TRP Activity (EC1.5) ([2]; Trp peptide assay): A (A (EC1.5<1 μM))
Emax [2, 4]: > 150%

SMILES: Cc1ccc(-c2ccc3c(n2)N(C(=O)NC2CCCOC2)[C@H]2CCN3C2)cn1 (stereo partly drawn) [(9S)-5-(6-methylpyridin-3-yl)-N-(oxan-3-yl)-1,6,8-triazatricyclo[7.2.1.0^{2,7}]dodeca-2(7),3,5-triene-8-carboxamide]
TRP Activity (EC1.5) ([2]; Trp peptide assay): C (C (EC1.5>25 μM))
Emax [2, 4]: < 150%

SMILES: O=C(Nc1ccccn1)N1c2nc(-c3cncc(C(F)(F)F)c3)ccc2N2C[C@@H](O)[C@H]1C2 [Example 694]
Tryp AVG EC1.5 (μM) [2, 5]: A (A (EC1.5<1 μM))

SMILES: O=C(NCCc1cccnc1)N1c2nc(-c3cccc(C(F)(F)F)c3)ccc2N2CC[C@H]1C2 [Example 615]
Tryp AVG EC1.5 (μM) [2, 3]: B (B (EC1.5 1-25 μM))

SMILES: C#Cc1ccc(NC(=O)N2c3nc(-c4cccc(C5(C(F)(F)F)N=N5)c4)ccc3N3CC[C@H]2C3)nc1 [Example 803]
Tryp AVG EC1.5 (μM) [2, 5]: A (A (EC1.5<1 μM))

SMILES: Cc1noc(C)c1-c1cccc(NC(=O)N2c3nc(-c4cccc(C(F)(F)F)c4)ccc3N3CC[C@H]2C3)n1 [Example 657]
Tryp AVG EC1.5 (μM) [2, 5]: A (A (EC1.5<1 μM))

SMILES: O=C(Nc1ccccn1)N1c2nc(N3CCC(C(F)(F)F)CC3)ccc2N2CC[C@H]1C2 [(9S)-N-(pyridin-2-yl)-5-[4-(trifluoromethyl)piperidin-1-yl]-1,6,8-triazatricyclo[7.2.1.0 {2,7}]dodeca-2,4,6-triene-8-carboxamide]
TRP Activity (EC1.5) ([2]; Trp peptide assay): A (A (EC1.5<1 μM))
Emax [2, 4]: > 150%

Now from value to compound:

TRP Activity (EC1.5) ([2]; Trp peptide assay): A (A (EC1.5<1 μM))
Emax [2, 4]: > 150%
SMILES: COCC(NC(=O)c1ccc2c(n1)N(C(=O)Nc1ccccn1)[C@H]1CCN2C1)C(F)(F)F (stereo partly drawn) [(9S)-8-N-(pyridin-2-yl)-5-N-(1,1,1-trifluoro-3-methoxypropan-2-yl)-1,6,8-triazatricyclo[7.2.1.0^{2,7}]dodeca-2(7),3,5-triene-5,8-dicarboxamide]

TRP Activity (EC1.5) ([2]; Trp peptide assay): C (C (EC1.5>25 μM))
Emax [2, 4]: < 150%
SMILES: O=C(Nc1cccnc1)N1c2nc(N3CCOC[C@@H]3CO)ccc2N2CC[C@H]1C2 [(9S)-5-[(3S)-3-(hydroxymethyl)morpholin-4-yl]-N-(pyridin-3-yl)-1,6,8-triazatricyclo[7.2.1.0 {2,7}]dodeca-2(7),3,5-triene-8-carboxamide]

Tryp AVG EC1.5 (μM) [2, 6]: B (B (EC1.5 1-25 μM))
SMILES: O=C(Nc1cnccn1)N1c2nc(-c3cc(Cl)cc(Cl)c3)ccc2N2CC[C@H]1C2 [Example 364]

Tryp AVG EC1.5 (μM) [2, 5]: B (B (EC1.5 1-25 μM))
SMILES: O=C(Nc1cccnn1)N1c2nc(-c3cccc(Cl)c3)ccc2N2C[C@@H](O)[C@H]1C2 [Example 682]

Tryp AVG EC1.5 (μM) [2, 3]: A (A (EC1.5<1 μM))
SMILES: O=C(Nc1cc(-c2cnco2)ccn1)N1c2nc(-c3cccc(C(F)(F)F)c3)ccc2N2CCC1CC2 [Example 595]

Tryp AVG EC1.5 (μM) [2, 3]: B (B (EC1.5 1-25 μM))
SMILES: COc1cc(NC(=O)N2c3nc(-c4ccnc(N5CC[C@@H](F)C5)c4)ccc3N3CC[C@H]2C3)ncn1 [Example 424]

Tryp AVG EC1.5 (μM) [2, 5]: A (A (EC1.5<1 μM))
SMILES: N=C(NCCN)c1ccc(NC(=O)N2c3nc(-c4cccc(C(F)(F)F)c4)ccc3N3CCC[C@H]2C3)cc1 [Example 792]

Tryp AVG EC1.5 (μM) [2, 3]: A (A (EC1.5<1 μM))
Emax ([2]; Trp mass spectrometry assay, percent maximum fold activation of SIRT1, read-out: Tryp % Fold Act): > 150%
SMILES: O=C(Nc1ccccn1)N1c2nc(-c3ccnc(N4CC[C@H](F)C4)c3)ccc2N2CC[C@H]1C2 [Example 422]

Tryp AVG EC1.5 (μM) [2, 5]: B (B (EC1.5 1-25 μM))
SMILES: O=C(Nc1nccc(N2CCNCC2)n1)N1c2nc(-c3cccc(C(F)(F)F)c3)ccc2N2CC[C@H]1C2 [Example 745]

Tryp AVG EC1.5 (μM) [2, 3]: B (B (EC1.5 1-25 μM))
SMILES: CC(=O)O[C@@H]1CN2C[C@H]1N(C(=O)Nc1ccccn1)c1nc(-c3cccc(C(F)(F)F)c3)ccc12 [Example 602]

Tryp AVG EC1.5 (μM) [2, 6]: A (A (EC1.5<1 μM))
SMILES: O=C(Nc1ccc(F)cn1)N1c2nc(-c3ccnc(N4CCC(C(F)(F)F)C4)c3)ccc2N2CC[C@H]1C2 (stereo partly drawn) [Example 391]
